Data reported in ChEMBL document CHEMBL4828744, “Design, synthesis and biological evaluation of pyridinylmethylenepiperidine derivatives as potent 5-HT1F receptor agonists for migraine therapy” (Eur J Med Chem, 2021).
Active and inactive are the calls of the source. No cut-off for these calls is given here.

Key:
[1] = AUC (0 to 24hrs) in Sprague-Dawley rat at 150 mg/kg, ig by LC-MS/MS analysis; format: ADME, organism-based; set-up: time < 24 hr, route intragastric, dose 150 mg/kg; conditions: in vivo, po
Homo sapiens [2] = species on record: Homo sapiens; assay: Selectivity ratio of IC50 for human 5HT2B receptor to IC50 for human 5HT1F receptor
[3] = Cmax in Sprague-Dawley rat at 1 mg/kg, iv measured for 24 hrs by LC-MS/MS analysis; format: ADME, organism-based; set-up: route intravenous, dose 1 mg/kg, time 24 hrs; conditions: in vivo
[4] = Bioavailability in Sprague-Dawley rat at 5 mg/kg, ig measured for 24 hrs by LC-MS/MS analysis; format: ADME, organism-based; conditions: in vivo, po
Homo sapiens [5] = species on record: Homo sapiens; assay: Selectivity ratio of IC50 for human 5HT2A receptor to IC50 for human 5HT1F receptor
[6] = Cmax in monkey at 25 mg/kg, ig administered for 28 days by LC-MS/MS analysis; format: ADME, organism-based, Macaca mulatta; set-up: route intragastric, dose 25 mg/kg, time 28 day; conditions: rhesus monkey, in vivo, po
[7] = target: 5-hydroxytryptamine receptor 2A (Homo sapiens, UniProt P28223); assay: Binding affinity to human 5HT2A receptor
Sequence of 5-hydroxytryptamine receptor 2A (P28223 whole entry): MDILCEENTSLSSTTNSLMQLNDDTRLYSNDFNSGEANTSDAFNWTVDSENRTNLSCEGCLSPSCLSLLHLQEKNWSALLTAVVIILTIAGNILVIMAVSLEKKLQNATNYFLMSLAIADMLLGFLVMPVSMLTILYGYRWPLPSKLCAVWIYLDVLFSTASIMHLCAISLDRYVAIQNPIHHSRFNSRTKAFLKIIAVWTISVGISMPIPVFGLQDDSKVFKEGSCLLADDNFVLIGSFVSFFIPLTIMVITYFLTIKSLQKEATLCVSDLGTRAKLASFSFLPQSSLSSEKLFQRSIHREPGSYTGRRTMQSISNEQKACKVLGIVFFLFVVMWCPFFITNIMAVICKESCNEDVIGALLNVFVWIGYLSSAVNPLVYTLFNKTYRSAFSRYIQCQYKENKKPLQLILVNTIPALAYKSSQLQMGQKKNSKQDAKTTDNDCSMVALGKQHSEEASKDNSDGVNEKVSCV

[8] = Cmax in Sprague-Dawley rat at 150 mg/kg, ig administered for 28 days by LC-MS/MS analysis; format: ADME, organism-based; set-up: route intragastric, dose 150 mg/kg, time 28 day; conditions: in vivo, po
[9] = target: T1, 5-hydroxytryptamine receptor 2C (Homo sapiens, UniProt P28335); assay: Binding affinity to human 5HT2C receptor
T1 sequence (P28335 whole entry): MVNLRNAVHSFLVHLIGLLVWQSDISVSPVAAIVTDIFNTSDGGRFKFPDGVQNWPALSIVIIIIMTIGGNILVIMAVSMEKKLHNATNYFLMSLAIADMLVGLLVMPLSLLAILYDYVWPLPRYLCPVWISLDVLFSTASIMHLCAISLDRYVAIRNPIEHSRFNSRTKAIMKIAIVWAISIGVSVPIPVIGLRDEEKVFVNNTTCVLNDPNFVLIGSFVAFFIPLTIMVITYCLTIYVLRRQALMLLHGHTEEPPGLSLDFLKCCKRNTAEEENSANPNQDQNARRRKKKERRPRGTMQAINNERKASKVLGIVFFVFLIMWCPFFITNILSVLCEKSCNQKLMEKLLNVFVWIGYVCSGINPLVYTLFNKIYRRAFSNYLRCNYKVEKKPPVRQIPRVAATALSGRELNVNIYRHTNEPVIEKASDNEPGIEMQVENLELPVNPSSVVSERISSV

[10] = Toxicity in Sprague-Dawley rat assessed as effect on inflammatory reaction at 150 mg/kg/day, ig administered for 28 days; format: organism-based; conditions: in vivo, po, 672 h, time 28 day
[11] = AUC (0 to 24hrs) in Sprague-Dawley rat at 15 mg/kg, ig by LC-MS/MS analysis; format: ADME, organism-based; set-up: time < 24 hr, route intragastric, dose 15 mg/kg; conditions: in vivo, po
[12] = target: 5-hydroxytryptamine receptor 1B (Homo sapiens, UniProt P28222); assay: Binding affinity to human 5HT1B receptor
Sequence of 5-hydroxytryptamine receptor 1B (P28222 whole entry): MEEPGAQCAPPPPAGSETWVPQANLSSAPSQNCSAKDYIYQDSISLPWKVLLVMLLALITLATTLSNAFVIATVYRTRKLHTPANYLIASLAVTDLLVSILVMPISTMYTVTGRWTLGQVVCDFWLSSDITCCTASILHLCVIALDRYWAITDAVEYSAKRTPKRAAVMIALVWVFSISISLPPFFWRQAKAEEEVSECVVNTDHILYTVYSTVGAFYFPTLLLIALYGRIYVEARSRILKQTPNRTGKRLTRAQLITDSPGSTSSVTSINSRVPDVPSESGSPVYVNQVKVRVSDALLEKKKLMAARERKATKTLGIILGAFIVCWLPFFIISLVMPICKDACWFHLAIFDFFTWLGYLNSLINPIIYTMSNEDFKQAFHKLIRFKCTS

[13] = target: T2, 5-hydroxytryptamine receptor 1F (Homo sapiens, UniProt P30939); assay: Agonist activity at 5HT1F receptor (unknown origin) expressed in HEK293 cells measured after 60 mins by Fluo-4AM dye based FLIPR assay; format: functional, cell-based; conditions: read-out: IC50 (the source's name)
T2 sequence (P30939 whole entry): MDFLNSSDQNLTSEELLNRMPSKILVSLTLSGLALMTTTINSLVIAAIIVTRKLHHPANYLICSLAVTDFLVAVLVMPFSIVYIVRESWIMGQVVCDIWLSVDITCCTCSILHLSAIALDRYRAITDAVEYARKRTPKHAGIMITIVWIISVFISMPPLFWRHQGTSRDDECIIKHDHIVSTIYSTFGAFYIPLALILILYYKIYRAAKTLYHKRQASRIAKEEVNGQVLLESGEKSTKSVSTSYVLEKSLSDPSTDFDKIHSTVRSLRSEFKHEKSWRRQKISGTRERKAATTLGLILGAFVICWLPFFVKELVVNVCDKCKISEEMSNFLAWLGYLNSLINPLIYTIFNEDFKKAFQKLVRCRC

Rattus norvegicus [14] = assay: Antimigraine activity against electrical stimulation of trigeminal ganglion migraine Wistar rat model assessed as reduction in c-Fos-positive cells at 10 ug/kg, po measured after 60 mins by confocal fluorescence microscopic analysis; format: functional, organism-based; conditions: dose 10.0 µg/kg
[15] = AUC (0 to 24hrs) in monkey at 25 mg/kg, ig by LC-MS/MS analysis; format: ADME, organism-based, Macaca mulatta; set-up: time < 24 hr, route intragastric, dose 25 mg/kg; conditions: rhesus monkey, in vivo, po
[16] = target: 5-HT1A/5-HT1F (Homo sapiens) (UniProt P30939+P08908); assay: Selectivity ratio of IC50 for human 5HT1A receptor to IC50 for human 5HT1F receptor; format: protein assay
Homo sapiens [17] = species on record: Homo sapiens; assay: Selectivity ratio of IC50 for human 5HT2C receptor to IC50 for human 5HT1F receptor
[18] = AUC (0 to 24hrs) in monkey at 5 mg/kg, ig by LC-MS/MS analysis; format: ADME, organism-based, Macaca mulatta; set-up: time < 24 hr, route intragastric, dose 5 mg/kg; conditions: rhesus monkey, in vivo, po
[19] = target: 5-hydroxytryptamine receptor 2B (Homo sapiens, UniProt P41595); assay: Binding affinity to human 5HT2B receptor
Sequence of 5-hydroxytryptamine receptor 2B (P41595 whole entry): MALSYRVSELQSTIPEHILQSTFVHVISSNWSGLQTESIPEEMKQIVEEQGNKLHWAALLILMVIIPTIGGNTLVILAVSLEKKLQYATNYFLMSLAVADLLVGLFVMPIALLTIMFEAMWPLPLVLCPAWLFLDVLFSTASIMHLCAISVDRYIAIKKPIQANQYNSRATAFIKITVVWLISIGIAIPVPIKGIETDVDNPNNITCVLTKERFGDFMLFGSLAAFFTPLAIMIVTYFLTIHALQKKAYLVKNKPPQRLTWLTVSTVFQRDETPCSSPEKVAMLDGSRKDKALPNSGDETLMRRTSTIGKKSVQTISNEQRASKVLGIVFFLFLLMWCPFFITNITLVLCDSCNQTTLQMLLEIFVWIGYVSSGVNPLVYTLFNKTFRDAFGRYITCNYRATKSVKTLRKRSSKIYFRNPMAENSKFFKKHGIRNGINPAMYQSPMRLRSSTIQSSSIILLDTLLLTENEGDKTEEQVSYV

[20] = AUC (0 to 24hrs) in Sprague-Dawley rat at 50 mg/kg, ig by LC-MS/MS analysis; format: ADME, organism-based; set-up: time < 24 hr, route intragastric, dose 50 mg/kg; conditions: in vivo, po
[21] = target: T3, 5-hydroxytryptamine receptor 1A (Homo sapiens, UniProt P08908); assay: Binding affinity to human 5HT1A receptor
T3 sequence (P08908 whole entry): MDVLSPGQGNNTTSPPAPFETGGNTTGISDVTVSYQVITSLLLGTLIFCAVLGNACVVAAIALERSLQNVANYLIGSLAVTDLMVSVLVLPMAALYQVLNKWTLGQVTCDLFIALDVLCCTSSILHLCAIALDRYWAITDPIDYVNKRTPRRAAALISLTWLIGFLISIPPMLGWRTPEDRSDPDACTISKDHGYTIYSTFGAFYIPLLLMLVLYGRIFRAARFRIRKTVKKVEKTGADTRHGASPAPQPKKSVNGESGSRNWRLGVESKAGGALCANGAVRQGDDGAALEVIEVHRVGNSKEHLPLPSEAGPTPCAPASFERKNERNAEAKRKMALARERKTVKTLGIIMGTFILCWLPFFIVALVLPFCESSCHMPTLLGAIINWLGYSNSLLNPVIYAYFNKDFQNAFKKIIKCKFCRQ

[22] = target: T4, 5-hydroxytryptamine receptor 1F (Homo sapiens) (UniProt P30939); assay: Potency index, ratio of lasmiditan EC50 to test compound EC50 for agonist activity at 5HT1F receptor (unknown origin) expressed in HEK293 cells measured after 60 mins by Fluo-4AM dye based FLIPR assay; format: functional, cell-based
T4 sequence (whole entry): T2 sequence (P30939 whole entry)

[23] = Cmax in Sprague-Dawley rat at 5 mg/kg, ig measured for 24 hrs by LC-MS/MS analysis; format: ADME, organism-based; set-up: route intragastric, time 24 hrs, dose 5 mg/kg; conditions: in vivo, po
[24] = AUC(0 to t) in Sprague-Dawley rat at 1 mg/kg, iv measured for 24 hrs by LC-MS/MS analysis; format: ADME, organism-based; set-up: time 24 hrs, dose 1 mg/kg; conditions: in vivo
[25] = Cmax in Sprague-Dawley rat at 50 mg/kg, ig administered for 28 days by LC-MS/MS analysis; format: ADME, organism-based; set-up: route intragastric, time 28 day, dose 50 mg/kg; conditions: in vivo, po
Rattus norvegicus [26] = assay: Antimigraine activity against electrical stimulation of trigeminal ganglion migraine Wistar rat model assessed as reduction in dural plasma protein extravasation at 0.01 to 0.1 ug/kg, po measured after 45 mins by confocal fluorescence microscopic analysis; format: functional, organism-based; conditions: dose 0.01-0.1 µg/kg
[27] = Clearance in Sprague-Dawley rat at 1 mg/kg, iv measured for 24 hrs by LC-MS/MS analysis; format: ADME, organism-based; conditions: in vivo

CN1CCC(=C(F)c2cccc(NC(=O)c3c(F)cc(F)cc3F)n2)CC1
AUC(0-t) at 24 h [1]: 10200 ng·h/mL | Ratio IC50 (Homo sapiens [2]): > 10000 | Cmax [3]: 110 ng/mL | bioavailability [4]: 64% | Ratio IC50 (Homo sapiens [5]): > 10000 | Cmax [6]: 3630 ng/mL | IC50 [7]: 4.87 µM | Cmax [8]: 841 ng/mL | IC50 [9]: 7.06 µM | Activity [10]: Non-Toxic | AUC(0-t) at 24 h [11]: 849 ng·h/mL | IC50 [12]: 2.16 µM | EC50 [13]: 0.0196 µM | Activity (Rattus norvegicus [14]): Active | AUC(0-t) at 24 h [15]: 67400 ng·h/mL | Ratio IC50 [16]: 472 | Ratio IC50 (Homo sapiens [17]): > 10000 | AUC(0-t) at 24 h [18]: 45200 ng·h/mL | IC50 [19]: 8.61 µM | AUC(0-t) at 24 h [20]: 5290 ng·h/mL | IC50 [21]: 0.151 µM | Ratio EC50 [22]: 4 | Cmax [23]: 88 ng/mL | AUC(0-t) at 24 h [24]: 128 ng·h/mL | Cmax [25]: 523 ng/mL | Activity (Rattus norvegicus [26]): Active | clearance [27]: 127 mL/min/kg
